In patent US20070128589A1, “Substrates, sensors, and methods for assessing conditions in females” (priority 2005, published 2007):
Entries after “also recorded” stand apart in the source; their conditions may differ. No end group written: not given here.

What was measured:
[1] = system: Gardnerella vaginalis; experiment: HRP release from Affigel-GV2-HRP beads, ABTS/H2O2 read at 405 nm; format: biochemical; conditions: peptide conjugated to HRP on Affigel beads, 5 minutes
Description: Various bacteria were cultured overnight at 37° C. in NYC III media with 5% CO2. A 10% slurry of Affigel-GV2-HRP in PBS was prepared, and 20 μl was added to six wells of a 96-well filter plate (Millipore Multi-screen HTS). Aliquots of the bacteria, including Gardnerella vaginalis, Pseudomonas aeruginosa, E. coli, Streptococcus pyogenes, Enterococcus faecalis, and Staphylococcus aureus, were added (100 μl) to the beads, and the plate was allowed to sit for 5 minutes at ambient temperature. The supernatants were centrifuged into a low-binding assay plate (Coming 3641), and assays for HRP were then run. […]
Gardnerella vaginalis was detected with the peptide PFINETYAKFC (SEQ ID NO: 1) which was conjugated to HRP. […] Alternatively, the color change can be measured on a plate reader at 405 nm.
(§1) FIG. 11 illustrates the specificity of the GV2 (PFINETYAKFC) (SEQ ID NO: 1) peptide for Gardnerella vaginalis over the course of five minutes when incubated with Gardnerella vaginalis, Staphylococcus aureus, Streptococcus pyogenes, Escherichia coli (E. coli), Pseudomonas aeruginosa, and Enterococcus faecalis. The extracts were filtered through microtiter plate filters and the HRP release was measured at 405 nm with ABTS substrate in the presence of hydrogen peroxide (H202).

[2] = system: E. coli; experiment: as above; format: biochemical, Escherichia coli; conditions: 5 minutes at ambient temperature
Description: (§2) Various bacteria were cultured overnight at 37° C. in NYC III media with 5% CO2. A 10% slurry of Affigel-GV2-HRP in PBS was prepared, and 20 μl was added to six wells of a 96-well filter plate (Millipore Multi-screen HTS). Aliquots of the bacteria, including Gardnerella vaginalis, Pseudomonas aeruginosa, E. coli, Streptococcus pyogenes, Enterococcus faecalis, and Staphylococcus aureus, were added (100 μl) to the beads, and the plate was allowed to sit for 5 minutes at ambient temperature. The supernatants were centrifuged into a low-binding assay plate (Coming 3641), and assays for HRP were then run. 2,2′-azino-bis(3-ethylbenzthiazoline-6-sulfonic acid) (ABTS, US Biological) is a commonly used substrate for HRP, giving a water-soluble blue-green color in the presence of HRP and hydrogen peroxide. The formation of the bluegreen color can be followed at 405 nm, with higher slopes indicating the presence of higher amounts of HRP.

[3] = system: Staphylococcus aureus, Streptococcus pyogenes, Escherichia coli (E. coli), Pseudomonas aeruginosa, and Enterococcus faecalis; experiment: HRP release from GV2-HRP beads, specificity against other common pathogens; format: biochemical; conditions: five minutes, FIG. 11
Description: as §2, with “The formation of the bluegreen color can be followed at 405 nm, with higher slopes indicating the presence of higher amounts of HRP.” left out
as §1

[4] = system: unidentified protease from Lactobacillus acidophilus; experiment: Peptide-HRP Affigel bead detection of Lactobacillus protease; format: biochemical; conditions: FIG. 12
Description: The two putative peptides were synthesized, coupled to Affigel beads (Bio-Rad, Hercules Calif.), and then labeled with horseradish peroxidase in the following manner:
Peptides were coupled to Affigel beads as described by the manufacturer. Similar results were obtained using small latex beads with carboxylic acid groups. Briefly, 1 mg of peptide was incubated with 1 ml of affigel in conjugation buffer (phosphate buffered saline) for 1-2 hours at room temperature. For the small latex beads functionalized with carboxylic acids, the peptides/proteins are coupled with EDC (1-ethyl-3-[3 dimethylaminopropyl] carbodiimide hydrochloride). The beads are either used immediately or conjugated further with HRP-maleimide or stored at 4° C. under a cushion of 2% trehalose or 2% sucrose.
HRP is conjugated to sulfo-SMCC though a reactive primary amine group. The reaction is performed for 1 hour in the presence of 50 mM sodium phosphate buffer (pH 7.4). The functionalized HRP is removed from the unbound sulfo-SMCC by gel filtration using P6 Biogel P polyacrylamide beads, Biorad (Hercules, Calif.) or Sephadex G50 beads (Amersham Biosciences, Piscataway, N.J.). The HRP-maleimide elutes in the void volume, whereas the free sulfo-SMCC elutes very slowly from the column. The HRP binds hemin, and, thus, has a brown color that can be used to quickly identify the void volume containing the HRP-maleimide. […]

[5] = system: C. albicans; experiment: G11 peptide detection of C. albicans grown in artificial vaginal fluid; format: biochemical, Candida albicans; conditions: FIG. 23
[6] = system: C. albicans; experiment: Identification of peptide targets for C. albicans; format: biochemical, Candida albicans
Description: Clones of green fluorescent protein (GFP) tagged conjugates were used to identify targets in a high throughput screen. Each clone contained a plasmid harboring a gene that contains a polyhistidine tag (6 his), 30 random nucleotides (corresponding to 10 random amino acids), and green fluorescent protein (GFP). On the day before a screen, 864 glowing clones are grown up overnight at 37° C. in deep well microtiter plates (1 ml/well). In the morning, the cultures can be induced with 1 mM IPTG for 1 hour, the cells can be centrifuged for five minutes, and then the media can be decanted. Lysozyme (2 mg/ml) can be added and the cells can be flash frozen 3 times. The samples can be treated with 100 ul/well of DNAse I at 37° C. for 30 minutes to reduce the viscosity by digesting the DNA. An aliquot of the sample can then be transferred to a microtiter filter plate containing 10 μl of nickel-NTA resin. The pipeting of the reagents (IPTG, lysozyme, DNAse I, and beads) can be performed with a Tecan Genesis RSP 100 Robot with Gemini version 4.0 software.
The plates can be filtered by centrifugation three times with PBS to remove unbound material and then the GFP-peptide-bound bead can be incubated with microbial extract for 20 min at 37° C. The sample can be filtered and the flow through fluorescence can be compared with the background from the prior wash. If the microbe has a protease that finds the ideal target, then the release of GFP fluorescence from the bead can be over 100 times greater than the background.
(SEQ ID NO: 8), the sequence QKTTIKKLKH (H2) (SEQ ID NO: 9), the sequence KPKAFLKVGN (R8) (SEQ ID NO: 6), the sequence TPIQIHTILH (SEQ ID NO: 10), the sequence […] (SEQ ID NO: 11), the sequence […] (SEQ ID NO: 12), and the sequence […] (SEQ ID NO: 13).

PFINETYAKFC (also: Affigel bead and HRP conjugate) [GV2]
HRP release / color change with H2O2 and ABTS substrate [1]: quite specific for G. vaginalis; also recorded: turns blue; also recorded: detects unidentified protease from G. vaginalis
HRP release / color change with H2O2 and ABTS substrate ([1]; listed as PFINETYAKFC): color change was observed quickly
HRP release signal (ABTS, 405 nm) [2]: small amount of signal
color change (HRP release, ABTS, 405 nm) with other common pathogens [3]: not in the presence of other common pathogens

ITTTSSKHEHC (Peptide Substrate of Lactobacillus acidophilus) [peptide substrate detecting a protease from Lactobacillus]
detection of protease from Lactobacillus [4]: detects an unknown protease; also recorded: detects an unidentified protease

TPIQIHTILH (Peptide Substrate of Candida spp.) [G11]
ability to detect C. albicans [5]: able to detect C. albicans; also recorded: able to detect Candida albicans
identified as peptide target for C. albicans [6]: peptide targets for C. albicans
